Measured values: patent publication US9598463B2, “Mucin hypersecretion inhibitors and methods of use” (BIOMARCK PHARMACEUTICALS, LTD., priority 2005, dated 2017)

Legend:
[1] = Stability of test peptides in human CF mucus (LC/MS/MS, first order half-life); format: in vitro ADME; settings: cerebrospinal or other body fluid, pH 7, human CF mucus
Protocol: (§1) Various test peptides in human plasma, human BALF, and CF patient mucus were analyzed to determine the susceptability of the test peptide to proteolysis in the biological fluids. […] The samples were analyzed either on the same day as received or stored at −20° C. and analyzed within the following two days.
The frozen mucus (sputum) from a CF patient was thawed and mixed with 2 volumes of 75 mM sodium acetate buffer, pH 7 with the help of a glass tissue grinder, centrifuged at 10,000×g for 10 min at 4-8° C. The pellet was re-suspended in 1 volume of the acetate buffer and centrifuged. The two supernatants were combined and used as follows. The supernatant (450 μL) was spiked with 50 μL, of 0.5 mg/mL solution of the peptide in 75 mM sodium acetate buffer at pH 7.0 and processed and analyzed as described above.
(§2) All samples were analyzed using LC/MS/MS (MDS/SCIEX, API 4000 Model). Chromatography was performed using a Phenomenex Luna C18 column, while mass spectrometry was performed using positive ion electrospray ionization.
(§3) Calibration standards were analyzed by LCMS at concentrations of 0.100 μg/mL, 1.00 μg/mL, 10.0 μg/mL, and 100 μg/mL for each peptide, with the exception of the calibration standards for peptides myr-PEPTIDE 106, PEPTIDE 106, PEPTIDE 106-NH2, PEPTIDE 106, and cyclic peptide, cyc-PEPTIDE 106, in human mucus, which were analyzed at concentrations of 0.100 μg/mL, 1.00 μg/mL, 10.0 μg/mL, and 75 μg/mL. Standards were prepared in 1% human BALF, plasma, or mucus in 50/50 water/acetonitrile mixture containing 0.2% formic acid. The instrument response values for each set of standards were fit using a 1/(concentration)^2 linear least-squares line. Sample concentrations were calculated using the slope and intercept of this line. Concentrations outside of the calibration range were determined by extrapolating the calibration curve.
(§4) Watson fits the log transformed data with a least-squares line to determine parameters such as Cmax (maximum concentration), intercept, rate constant, slope, and T1/2 (half-life). The resulting kinetic parameters were based on the linear fit, not the actual concentration values.
(§5) Time-zero calibration standards in solution were not included as part of the kinetic profiles.

[2] = system: methacholine-induced mucin hypersecretion; assay: Duration of action of test peptides in a murine model of asthma; format: in vivo; settings: Balb/C mice
Source text: Experiments were designed to test whether or not the MANS peptide and other test peptides related thereto inhibit hypersecretion of mucin in murine airway in vivo. The ovalbumin-sensitized mouse model of allergic inflammation and asthma used in these studies was as described by Singer et al. (2004), supra. As a negative control, a control peptide containing an N-terminal myristoyl group and the same amino acids as MANS peptide but arranged in random order (i.e., the random N-terminal sequence, RNS, myristoyl-peptide 232) was tested alongside the proposed active peptides. BP2 mice, aged 6-8 wks, were immunized subcutaneously twice at weekly intervals with 1 μg of ovalbumin. After 14 days of sensitization, the animals were exposed to aerosolized ovalbumin, which causes a pronounced goblet cell hyperplasia after 72 hours. At the 72 hr time point, the secretagogue, methacholine ([…]) was delivered using a Buxco system nebulizer providing a fine aerosol for 90 seconds. Fifteen min prior to the secretagogue challenge, 50 μL of the test peptide, at 3 different concentrations (10 μM, 100 μM, or 140 μM), was administered by intratracheal route. The RNS peptide was tested at the highest dose level only (50 μL of 140 μM solution). […] Each experiment was carried out in 6 mice per point, and each set of experiments was repeated 3 times. To test strain-to-strain variations, the above experiment was repeated in Balb/C mice under similar protocol. Both stimulated and unstimulated mucin secretion, in mice treated with […] sodium acetate (data not shown), were identical to saline control. Following the methacholine challenge, the animals were sacrificed and bronchoalveolar lavage (BAL) performed on 6 animals per group for analysis of secreted mucin.
Mice were sacrificed by cervical dislocation, followed by rapid exposure of the trachea and insertion of a cannula through a small incision. Bronchoalveolar lavage (BAL) fluid was collected with 0.5 ml followed by 3×1 ml PBS containing PMSF (5 mM), EDTA (5 mM), and DTT (5 mM). BAL fluid was separated into cell-free and cell fractions via brief centrifugation prior to any analyses being performed. The cell-free supernatants were analyzed for the presence of mucin via an ELISA method using anti-mucin antibodies shown to react with mouse mucin. Specifically, a mouse anti-MUC5AC antibody that recognizes the carbohydrate portion of secreted mucin was used in these assays. Data generated from each BAL sample were normalized to total protein as determined by Bradford assay. Mucin content was expressed as the value obtained with the anti-mucin antibody minus that obtained with the non-immune control antibody. All ELISA data were statistically examined using a one-way ANOVA.
Experiments were designed to determine the duration of action of test peptides in a murine model of asthma. As described in Method 1A, Balb/C mice were immunized with ovalbumin. After 14 days, the animals were challenged with aerosolized ovalbumin. After 72 hours the secretagogue, methacholine was delivered by aerosolization. The test peptides ([…] of 100 µM solution) were administered by intratracheal route 30 min, 60 min, or 120 min prior to methacholine challenge. The animals were sacrificed and BAL performed for analysis of secreted mucin The results of this experiment are given in Table VI.

[3] = Qualitative solubility of test peptides in 0.5 N saline; format: physicochemical; settings: pH 6.5, 20° C. (table title)
Outline: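 Weighed peptide (1 to 5 mg) titrated with 25 μL aliquots of 0.5 N saline, pH 6.5, at 25° C until dissolution judged visually. Solubility calculated from volume needed; complete dissolution in first aliquot reported as greater than, non-dissolution as less than, the calculated value.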

[4] = Stability of test peptides in human BALF (LC/MS/MS, first order half-life); format: in vitro ADME; settings: cerebrospinal or other body fluid, human BALF from COPD patients, 1st experiment, read-out: BALF t1/2 (1st exp.) (converted)
Protocol: as §1
Samples of BALF collected from COPD patients were obtained and frozen. The BALF samples were thawed, mixed together and centrifuged at 10,000×g for 10 min at 4-8° C. The supernatant (0.9 mL) was spiked with 0.1 mL of 0.5 mg/mL solution of the peptide in 75 mM sodium acetate buffer at pH 7.0 and processed and analyzed as described above.
as §2, §3
Duplicate calibration standards were analyzed at a concentration of 50 μg/mL for each peptide. The instrument response values for each set of standards were fit through an intercept of 0 using an unweighted, linear least-squares line. Sample concentrations were calculated using the slope and intercept of this line.
For the analysis of peptide concentration in BALF samples, one 50 μg/mL calibration standard prepared in a mixture of BALF, water, acetonitrile, and formic acid was analyzed with each sample set.
as §4, §5

[5] = 1st experiment, read-out: Mucus t1/2 (1st exp.) (converted)
[6] = 2nd experiment, read-out: Mucus t1/2 (2nd exp.) (converted)
[7] = peptide intratracheal 30 min prior to methacholine challenge
[8] = peptide intratracheal 60 min prior to methacholine challenge
[9] = peptide intratracheal 120 min prior to methacholine challenge

Substance	half-life [1, 5] [min]	half-life [1, 6] [min]	Duration of action, mucin secretion (% of Control) [2, 7]	Duration of action, mucin secretion (% of Control) [2, 8]	Duration of action, mucin secretion (% of Control) [2, 9]	solubility [3] [mg/mL]	half-life [4] [min]
Ac-GAQFSKTAAK-OH [Ac-peptide 106]	33	28.2	21 % of Control	72 % of Control	70 % of Control	> 100	113
H-GAQFSKTAAK-OH [peptide 106, GAQFSKTAAK]	13.8	22.2	23 % of Control	48 % of Control	57 % of Control	> 70	113
